# Results as given in patent US8829002B2, “Substituted methyl amines, serotonin 5-HT6 receptor antagonists, methods for production and use thereof” (priority 2010, dated 2014).
# Key:
# Format in all cases: in vivo
# [1] = system: Mice of SHK line; experiment: Prepulse inhibition of the startle response in mice (Apomorphine model); settings: 1 mg/kg, 60 minutes before the test; FIG. 11
# Method: Antipsychotic activity of compounds of the general formula 1 in “Prepulse inhibition of the startle response in mice” test. Mice of SHK line weighing about 24-30 g were used in the test. Experiments were carried out during light period of animal's diurnal. Apomorphine hydrochloride and Haloperidol were received from Sigma Chemicals Company, (USA). Apomorphine hydrochloride was dissolved in 0.1% solution of ascorbic acid prepared with sterilized water; it was introduced subcutaneously 15 minutes before the test. Haloperidol was dissolved in sterilized water using emulsifier Twin 80, it was introduced intraperitoneally 60 minutes before the test. Compound 1.5(1) was dissolved in sterilized water, it was introduced subcutaneously 60 minutes before the test. Injection volume was 10 ml/kg. Solution of ascorbic acid prepared with sterilized water and Twin 80 were injected to control group of animals.
# The test instrument consisted of a chamber made of transparent plexiglass (manufacturer—Columbia Instruments Company, USA) and placed on a platform; the latter was lodged inside the sound insulating chamber. High frequency sound column transmitting acoustic stimulus was located 2 cm away from the platform. […] Level of background noise made up 65 dB. Each animal received 4 stimuli of single testing (pulse) stimulus of 50 ms duration and 105 dB or prepulsory stimulus (pre-pulse) of 20 ms duration and 85 dB, after which in 30 ms pulse stimulus of 50 ms duration and 105 dB followed. Time interval between repeated pulse or prepulse in combination with pulse stimuli made up 10 s. Inhibition of the startle in reply to prepulse-plus-pulse stimulus was calculated in percentage towards amplitude of startle in response to isolated pulse stimulus. Administration of Apomorphine, which is used in experiments on animals for modelling of psychoto-like conditions, caused reduction of prepulse inhibition of startle, which reflected the lowering of CNS ability to filter sensory stimulus. The experiment was also carried out using compounds 1.1(9) and 1.8(7).
# [2] = system: male mice of BALB/c line; experiment: Passive Avoidance of mice in the Shuttle Chamber, memory disturbed by Scopolamine; settings: Scopolamine 0.3 mg/kg, intraperitoneally 30 minutes before training; FIG. 1-3
# Method: Nootropic action (enhancement of memory disturbed by Scopolamine) of compounds of the general formula 1 in the test “Passive Avoidance of mice in the Shuttle Chamber”. A shuttle chamber (Ugo Basile, Italy) consisted of two sections was used. […] The sections were connected through a hole which could be overlapped by vertical door. The floor of the dark section was made of transverse metal bars on which DC current impulses could be fed. Experiments were carried out in aged male mice of BALB/c line weighing 20-25 grams.
# On the first day of the experiment 30 minutes before training mice were injected intraperitoneally with physiological solution, Scopolamine (0.3 mg/kg), or Scopolamine in combination with compound 1.5(1). Each group consisted of 8 animals at least. The animals were placed in the light section, and latent period of the first entry into the dark chamber was registered. Then the vertical door was closed and the animal was punished by 0.6 mA DC current for 3 seconds. After that the animal was taken back to its home cage. In 22-24 hours the same animal was placed again in the light section of the shuttle chamber and latent period of its first entry into the dark section, the total time of its stay in the light section and the number of entries into dark section were registered. Each monitoring lasted for 5 minutes. […]
# [3] = system: Male rats of Vistar line; experiment: Appetite Control Test; settings: dose 10 mg/kg intraperitoneally 60 minutes before the test; 16 h food deprivation; FIG. 10
# Method: Male rats of Vistar line weighing 230-360 g were housed in standard home cages with water and food available with the exception of short periods of food deprivation (16 hs) just before the Appetite test. The Appetite test was carried out in individual cages with overhead cover made of wire in the niches of which a portion of food granules was inserted. Mass of the granules was examined every 30 minutes for 3 h. On the basis of these measurements food consumption was estimated and stated in grams of food per kilogram of body mass. Placebo and compound 1.5(1) (dose 10 mg/kg) were injected intraperitoneally 60 minutes before the test. Each experimental group of animals consisted of 10 rats. Compound was dissolved in sterilized water. The injection volume was 10 ml/kg. Intact animals which were not undergone food deprivation, and animals after food deprivation, but injected with sterilized water, were used as control. Intact animals which were not undergone food deprivation and injected with sterilized water, were used as control. The experiment was carried out also using compounds 1.1(9) and 1.8(7).
# [4] = system: male mice of BALB/c line; experiment: Porsolt's Forced Swim Test; settings: after 4 days administration in doses of 1 mg/kg; last 5 minutes of 15 min test; FIG. 12
# Method: Antidepressant action of antagonists of the general formula 1 in Porsolt's Forced Swim Test. The test apparatus represented a plastic vessel filled with water up to height of 18 cm at 20-22° C. Experiments were carried out in aged male mice of BALB/c line weighing 20-24 grams. An animal was placed in water and for 15 minutes the duration of immobile hanging in water—so named behavioural despaire which is considered to be a measure of depressively-like state, was registered. The last 5 minutes of the test were used for estimation. Automated computerized detection of motion with video system and Any-maze program were used in test.
# [5] = system: male mice of BALB/c line; experiment: Passive Avoidance of mice in the Shuttle Chamber, memory disturbed by MK-801; settings: MK-801 0.1 mg/kg, intraperitoneally 30 min before training; FIG. 4-6
# [6] = system: male mice of BALB/c line; experiment: Tail suspension test; settings: after 4 days administration in doses of 0.1 mg/kg; 3 minutes; FIG. 13
# Method: Antidepressant action of compounds of the general formula 1 in tail suspension test. Experiments were carried out in aged male mice of BALB/c line weighing 20-24 grams. In the test mice were suspended by tail with scotch tape on holder over horizontal surface at a height of about 40 cm, and for 3 minutes the total duration of complete immobility episodes which is considered to be a measure of depressively-like state was registered. Automated computerized detection of motion with video system and Any-maze program were used in test.
# [7] = system: male mice of BALB/c line; experiment: Mice Behavior in the Elevated Plus Maze; settings: 5 minutes, FIG. 7-9
# Method: Anxiolytic (tranquilizing) action of compounds of the general formula 1 in “Mice Behavior in the Elevated Plus Maze” test. Compounds 1.1(9), 1.5 (1) and 1.8(7) were employed in the experiments. Arm length was 30 cm, width—5 cm, wall hight—15 cm. Two opposite arms were closed from both sides and end surfaces with transparent plexiglass; two others—lighted and opened. A mouse was placed in the maze center, and over a period of 5 minutes the number of opened and closed arms entries and duration of opened and closed arm entries were registered. […] Being in normal state animals avoid opened arms (index of preference makes 0.2-0.3). Compounds with anxiolytic activity (tranquilizing activity) run this value up to 0.5-0.6 and more, and also decrease the number of defecations without changing overall physical activity (general number of arm entries).
Structure (SMILES),Antipsychotic activity: prepulse inhibition of startle disturbed by Apomorphine [1],Nootropic action (enhancement of memory disturbed by Scopolamine) [2],Appetite (food consumption) after food deprivation [3],Antidepressant action: duration of immobile hanging in water (behavioural despaire) [4],Nootropic action (enhancement of memory disturbed by MK-801) [5],Antidepressant action: total duration of complete immobility [6],Anxiolytic (tranquilizing) action [7]
"O=C(CCCN1CCC(O)(c2ccc(Cl)cc2)CC1)c1ccc(F)cc1 [Haloperidol, reference compound]",prevented disturbance of prepulse inhibition of startle caused by Apomorphine,–,–,–,–,–,–
"CNc1ccc(N2CCNCC2)cc1S(=O)(=O)c1cccc(F)c1 [1.1(9), methyl-[4-piperazin-1-yl-6-(3-fluorophenylsulfonyl)phenyl]-amine]",prevented disturbance of prepulse inhibition of startle caused by Apomorphine,produce nootropic action more effectively,capable to prevent appetite rising in rats,diminish the given parameter,produce nootropic action,diminish the duration of complete immobility of mice,anxiolytic (tranquilizing) activity comparable to the activity of Buspirone and Lorazepam
"CNc1c(S(=O)(=O)c2ccccc2)cnc2c(N3CCNCC3)cccc12 [1.5 (1), methyl-(8-piperazin-1-yl-3-phenylsulfonylquinolin-4-yl)-amine]",prevented disturbance of prepulse inhibition of startle caused by Apomorphine,produce nootropic action more effectively,capable to prevent appetite rising in rats,diminish the given parameter,produce nootropic action,diminish the duration of complete immobility of mice,anxiolytic (tranquilizing) activity comparable to the activity of Buspirone and Lorazepam
